For series [1], the system named is Caenorhabditis elegans. Put plainly: Antiparasitic activity against Caenorhabditis elegans, 96 well microplate (MIC). The settings on record: 20° C., observed after 24 and 48 hours. It is filed as in vivo. The text has this:
(§1) As model insects for simple determination of antiparasitic and insecticidal activities, those insects are desired which can be easily obtained and bred in laboratories, and have no pathogenicity to a human. Caenorhabditis elegans, an unparasitic eelworm widely used in experiments of genetics, was used as a typical steam worm, and Artemia salina used as feed for tropical fish and named Brine shrimp, was used instead of insects.
Escherichia. coli for the feed of Caenorhabditis elegans (mutant having uracil requirement) was inoculated in a seed medium for E. coli to which a small amount of uracil was added, and cultured with shaking at 27° C. for 1 day. A petri dish of 6 cm diameter was filled with 10 ml of an agar medium for eelworm proliferation, and the medium was solidified. Then 0.5 ml of the culture of E. coli was spread over the medium in the dish, and the dish was incubated at 37° C. to proliferate E. coli. A piece of the agar was collected with a platinum loop from a petri dish in which Caenorhabditis elegans successfully proliferated, and inoculated in petri dishes in which E. coli was proliferated. The petri dishes were incubated at 20° C. to proliferate Caenorhabditis elegans. Since the life of eelworm is about 2 weeks, subculture was carried out every once a week. The eelworms grown with spread on the surface of the petri dish after 3 to 5 days from subculture were used for the experiments.
The agar medium for eelworm proliferation was prepared by mixing the solutions in the following proportion: Solution A: 100 ml, Solution B: 0.1 ml, Solution C: 0.05 ml, Solution D: 0.1 ml and Solution E: 2.5 ml (without pH adjustment), and dispensing each 10 ml portion into petri dishes of 60×15 mm.
In distilled water, 2.0% of bact-trypton (DIFCO Co.), 0.55% of sodium chloride and 0.001% of uracil (SIGMA Co., pH 7.4) were dissolved, and the solution was sterilized in an autoclave at 121° C. for 20 minutes.
(§2) Each well of a 96 well microplate was filled with the solution of the test compound (methanol as a solvent), and the solvent was removed using a vacuum pump, then 250 μl of the assay medium was added to each wells (the assay medium was prepared by dissolving 7.5 mM sodium hydrogencarbonate, 7.5 mM potassium chloride, 7.5 mM calcium chloride dihydrate and 7.5 mM magnesium sulfate heptahydrate in distilled water and adding 0.01% of lecithin thereto), and then the microplate was shaken using a microplate mixer for 15 minutes. To each well, a few individuals of Caenorhabditis elegans were added by softly rubbing the surface of the agar using a toothpick, or a few individuals of Artemia salina were added together with 50 μl of the buffer. The microplate was incubated at 20° C., and then the insects were observed after 24 and 48 hours under a microscope (magnification of 40×). The results were compared to those obtained without addition of the test compound, and evaluated by 4 grades.
(§3) The evaluation results were shown by indications of 4 grades from 0 to 3.
(§4) 1: A little week movements
(§5) Of the 4 grades, Indications 3 and 2 were judged as effective, and Indications 1 and 0 as ineffective. In Table 9, the values for each compound are minimum inhibitory concentrations (MIC) which were required to give Indication 2 (or 3) for Caenorhabditis elegans or Artemia salina. In Table 9, Caenorhabditis elegans and Artemia salina are abbreviated as C.E. and A.S., respectively.

The subject of series [2] is Artemia salina. In words: Insecticidal model activity against Artemia salina (brine shrimp), 96 well microplate (MIC). It is filed as in vivo. As to conditions: 20° C., observed after 24 and 48 hours.
From the text: as §1
To a buffer for Artemia salina (obtained by dissolving 0.24% of Tris, 2.57% of sodium chloride, 0.47% of magnesium chloride, 0.07% of potassium chloride, 0.02% of sodium carbonate, 0.64% of magnesium sulfate and 0.11% of calcium chloride in distilled water and adjusting the pH to 7.1 with hydrochloric acid), dried eggs of Artemia salina [Tetra Brine Shrimp Eggs, Warner Lambert Co.] were added. The noprius larvae 1 or 2 days after hatching were used for the experiments.
as §2, §3, §4, §5

Series [3] deals with Lucilia cuprina larvae. In words: Blowfly larvae test / development-inhibiting activity. It counts as in vivo. As for the experimental part:
Blowfly larvae test/Development-inhibiting activity
Test animals: Lucilia cuprina larvae
(§6) Solvent: Dimethylsulfoxide
20 mg of active compound are dissolved in one ml of dimethylsulfoxide. In order to prepare a suitable formulation the active compound solution is diluted with water to the concentration required in each case.
Approx. 20 Lucilia cuprina larvae are introduced into a test tube containing approx. 1 cm^3 of horse-meat and 0.5 ml of the active compound preparation to be tested. After 48 hours the activity of the active compound preparation is determined. The test tubes are transferred to beakers with a sand-covered base. After a further 2 days the test tubes are removed and the pupae counted.
The activity of the active compound preparation is assessed according to the number of flies which have hatched after 1.5 times the development period of an untreated control. 100% means that no flies have hatched: 0% means that all of the flies have hatched normally.

The subject of series [4] is Adult Ctenocephalides felis. Put plainly: Test on cat fleas / oral absorption. It counts as in vivo. The settings on record: after 24 hours. As for the experimental part: Test on cat fleas/oral absorption
Test animals: Adult Ctenocephalides felis
Solvent: Dimethylsulfoxide (DMSO)
20 μl of this formulation are added to 4 ml of citrated cow's blood and stirred.
20 starved adult fleas (of “Georgi” species of Ctenocephalides felis) are introduced into a chamber (of a diameter of 5 cm) which is sealed with gauze at the top and bottom. A metal cylinder, whose base is sealed with parafilm, is placed on the chamber. […] Whereas the blood is heated to 37° C. a temperature of 25° C. is adjusted in the region of the flea chambers. Controls are mixed with the same volume of DMSO without the addition of any of the compounds. The test are repeated three times.
After 24 hours the mortality is determined in %.

Series [5] concerns Third larval stages of Periplaneta americana. Put plainly: Test on cockroaches, immersion process. It is filed as in vivo. The settings on record: immersion 60 seconds, time of reading not stated (2 and 24 hours, 7 days). The procedure:
Test on cockroached—Immersion process
Test animals: Third larval stages of Periplaneta americana
as §6
20 mg of active compound are dissolved in one ml of dimethylsulfoxide. In order to prepare a suitable formulation the solution of active compound is diluted with water to the concentration required in each case.
20 ml of this preparation of active compound are pipetted into tubes (of a diameter of 1.5 cm and a height of 10 cm). 4 cockroach larvae are intoxicated with CO2 and transferred to a tube (of a diameter of 1.2 cm and a height of 9 cm) containing 3 holes (in the base and 5 cm below the upper rim). The tube is sealed with a stopper and kept at room temperature for 30 minutes until all of the cockroach larvae again display normal activity. The tube is immersed in the active compound formulation for 60 seconds, during which period all of the cockroach larvae are completely coverd. After the liquid has drained off the cockroach larvae are transferred to filter discs in cans made of PP (of a diameter of 9.7 cm and a height of 8 cm height).
After 2 and 24 hours and after 7 days the activity of the active compound formulation is determined. 100% means that all of the cockroach larvae have been destroyed; 0% means that none of the cockroach larvae have been destroyed.

The subject of series [6] is Heterakis spumosa. In words: In vivo experiments with Heterakis spumosa in mice. More on the design: key: 3 represents cure (no parasites detectable); 2 effective (<20% of parasites remaining); 1 trace effect (< of parasites remaining); 0 ineffective (>50% of parasites remaining). As to conditions: orally 4 times, mice infected with H. spumosa. The procedure:
In vivo experiments with Heterakis spumosa
For the experiments male mice (strain Bor CFW, 25-30 g of body weight on receipt) were housed in Macrolon cages (3 mice per cage) and provided with water and SNIFF rat feed (10-mm pellets) ad libitum. Mice were infected with H. spumosa by oral application of 90 embryonated eggs. The eggs were obtained from female Heterakis. isolated from mouse colon 40 days after infection followed by additional three weeks incubation at 37° C. The mice were treated orally 4 times with the compounds at the dosages of 1, 0.5, 0.25, 0.1, 0.05 and 0.025 mg/kg between days 46 and 49 after infection. Compounds were suspended in Cremophor EL. Infected control mice served as untreated controls which only received Cremophor EL. Mice were killed eight days after treatment (i.e. on day 57 after infection) with carbon dioxide and cecum and colon were dissected. The number of worms which have resided in the cecum and colon were counted macroscopically. The ratios of the number of expelled worms in percent of the total number of worms was defined as level of the anthelmintic activity. Activity was evaluated on a scale 0-3 where 3 represents cure (no parasites detectable), 2 effective (<20% of parasites remaining), 1 trace effect (< of parasites remaining) and 0 ineffective (>50% of parasites remaining).

Where [7] appears, read: 100 ppm in citrated cow's blood.

As to `CCC(C)C1OC2(C=CC1C)CC1CC(CC=C(C)C(OC3CC(OC)C(OC4CC(OC)C(=CCOC(=O)c5cccnc5)C(C)O4)C(C)O3)C(C)C=CC=C3COC4C(O)C(C)=CC(C(=O)O1)C34O)O2` (stereo not shown) [Compound 21], the “C.E. minimum inhibitory concentration (MIC) required to give Indication 2 (or 3)” value (shortened to “C.E. minimum inhibitory concentration”) in series [1] amounted to 0.01 mg/L. Besides, the “A.S. minimum inhibitory concentration (MIC) required to give Indication 2 (or 3)” value (“A.S. minimum inhibitory concentration” for short) in series [2] was 0.002 mg/L. Also, the “development-inhibiting activity (100% = no flies have hatched)” value in series [3] (1 ppm), in series [3] (10 ppm) and in series [3] (100 ppm) was 100% throughout.

As to `CCC(C)C1OC2(C=CC1C)CC1CC(CC=C(C)C(OC3CC(OC)C(OC4CC(OC)C(=CC(=O)OC)C(C)O4)C(C)O3)C(C)C=CC=C3COC4C(O)C(C)=CC(C(=O)O1)C34O)O2` (stereo not shown) [Compound 7], in series [1], the “C.E. minimum inhibitory concentration” value amounted to 0.01 mg/L. Moreover, the “A.S. minimum inhibitory concentration” value in series [2] came out at 0.002 mg/L. Besides, the “development-inhibiting activity (100% = no flies have hatched)” value in series [3] (1 ppm), in series [3] (10 ppm) and in series [3] (100 ppm) was 100% in each case. Moreover, the mortality of fleas amounted to 61% in series [4] (10 ppm in citrated cow's blood) and 99% in series [4] (setting [7]).

Turning to `CCC(C)C1OC2(CC3CC(CC=C(C)C(OC4CC(OC)C(OC5CC(OC)C(=CC(=O)OC)C(C)O5)C(C)O4)C(C)C=CC=C4COC5C(O)C(C)=CC(C(=O)O3)C45O)O2)CC(O)C1C` (stereo not shown) [Compound 78], the entries for the “activity (100% = all of the cockroach larvae destroyed)” value in series [5] (1 ppm), in series [5] (10 ppm) and in series [5] (100 ppm) were 50%, 50% and 100%, respectively.

`CCOC(=O)C=C1C(C)OC(OC2C(C)OC(OC3C(C)=CCC4CC(CC5(C=CC(C)C(C(C)CC)O5)O4)OC(=O)C4C=C(C)C(O)C5OCC(=CC=CC3C)C45O)CC2OC)CC1OC` (stereo not shown) [Compound 2]: in series [1], the “C.E. minimum inhibitory concentration” value turned out to be 0.01 mg/L. For the same compound, the “A.S. minimum inhibitory concentration” value in series [2] was determined as 0.01 mg/L. Also, the “anthelmintic activity score (scale 0-3)” value in series [6] (0.05 mg/kg) was 2 (2 effective (<20% of parasites remaining)); in series [6] (0.1 mg/kg), 3; in series [6] (0.25 mg/kg) it was 3; in series [6] (0.5 mg/kg), 3; in series [6] (1 mg/kg), 3. The mortality of fleas in series [4] (10 ppm in citrated cow's blood) is recorded as 50%; in series [4] (setting [7]) it was 100%.

Turning to `CCC(C)C1OC2(C=CC1C)CC1CC(CC=C(C)C(OC3CC(OC)C(OC4CC(OC)C(=CC=CC(=O)O)C(C)O4)C(C)O3)C(C)C=CC=C3COC4C(O)C(C)=CC(C(=O)O1)C34O)O2` (stereo not shown) [Compound 66], the figures for the “activity (100% = all of the cockroach larvae destroyed)” value in series [5] (1 ppm), in series [5] (10 ppm) and in series [5] (100 ppm) were 75%, 100% and 100%, respectively.

Consider `CCC(C)C1OC2(C=CC1C)CC1CC(CC=C(C)C(OC3CC(OC)C(OC4CC(OC)C(=CCO)C(C)O4)C(C)O3)C(C)C=CC=C3COC4C(O)C(C)=CC(C(=O)O1)C34O)O2` (stereo not shown) [Compound 4], for which the “C.E. minimum inhibitory concentration” value in series [1] was determined as 0.01 mg/L. Also, the “A.S. minimum inhibitory concentration” value in series [2] turned out to be 0.01 mg/L. For the same compound, the figures for the mortality of fleas in series [4] (10 ppm in citrated cow's blood) and in series [4] (setting [7]) were 42% and 100%, respectively.

In the case of `CCC(C)C1OC2(C=CC1C)CC1CC(CC=C(C)C(OC3CC(OC)C(OC4CC(OC)C(=CCOC5CCCCO5)C(C)O4)C(C)O3)C(C)C=CC=C3COC4C(O)C(C)=CC(C(=O)O1)C34O)O2` (stereo not shown) [Compound 31], the “C.E. minimum inhibitory concentration” value in series [1] was 0.05 mg/L. Moreover, the “A.S. minimum inhibitory concentration” value in series [2] was 0.01 mg/L. The “anthelmintic activity score (scale 0-3)” value in series [6] (0.1 mg/kg) is on record as 2 (2 effective (<20% of parasites remaining)); in series [6] (0.25 mg/kg), 2 (2 effective (<20% of parasites remaining)); in series [6] (0.5 mg/kg), 3; in series [6] (1 mg/kg) it was 3.
